From patent publication US7700782B2, “Compounds 569” (AstraZeneca AB, priority 2007, dated 2010)
Where a name gives a salt, the structure may show the parent alone.

These compounds were tested against T1, Adrenergic β2 (Homo sapiens, UniProt P07550) (assay: Adrenergic β2 mediated cAMP production in H292 cells (AlphaScreen cAMP detection)). Details: Intrinsic Activity, fraction relative to the maximum activity determined for formoterol.
T1 construct: Adherent H292 cells were removed from tissue culture flasks; endogenous in cells; host or cells: H292 cells
Assay type: cell-based
Procedure, shortened: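 H292 cells, 5000/well, preincubated 10 min with rolipram (final 300 μM, 1.6% DMSO) in HEPES pH 7.4 HBSS, then compound 60 min at room temperature. Lysate cAMP quantified by AlphaScreen against a cAMP standard curve. pEC50 and intrinsic activity (fraction of formoterol maximum) from four-parameter logistic fits.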

T1 sequence (P07550 whole entry): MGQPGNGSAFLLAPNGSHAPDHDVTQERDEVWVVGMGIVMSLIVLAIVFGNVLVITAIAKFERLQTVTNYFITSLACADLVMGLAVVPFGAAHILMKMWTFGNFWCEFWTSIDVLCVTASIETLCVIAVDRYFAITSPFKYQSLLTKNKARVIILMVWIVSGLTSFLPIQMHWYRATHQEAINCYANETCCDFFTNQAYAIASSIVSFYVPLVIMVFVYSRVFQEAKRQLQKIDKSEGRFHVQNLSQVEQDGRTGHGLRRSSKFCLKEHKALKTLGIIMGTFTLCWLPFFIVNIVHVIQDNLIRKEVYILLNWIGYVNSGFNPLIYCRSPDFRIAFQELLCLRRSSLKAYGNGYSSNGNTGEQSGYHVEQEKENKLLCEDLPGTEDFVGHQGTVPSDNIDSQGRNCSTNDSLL

Row | Compound | β2 Int Act
1 | O=C(CCNCCc1ccc(O)c2[nH]c(=O)sc12)N(CCNCCc1ccc(O)c2[nH]c(=O)sc12)C1CCCCCC1 [Example 87, N^1-Cycloheptyl-N^3-[2-(4-hydroxy-2-oxo-2,3-dihydro-1,3-benzothiazol-7-yl)ethyl]-N^1-(2-{[2-(4-hydroxy-2-oxo-2,3-dihydro-1,3-benzothiazol-7-yl)ethyl]amino}ethyl)-β-alaninamide bis-trifluoroacetic acid salt] | 0.72
2 | O=C(CCNCCc1ccc2c(c1)OCCO2)N(CCNCCc1ccc(O)c2[nH]c(=O)sc12)C1CCCCCC1 [Example 88, N^1-Cycloheptyl-N^3-[2-(2,3-dihydro-1,4-benzodioxin-6-yl)ethyl]-N^1-(2-{[2-(4-hydroxy-2-oxo-2,3-dihydro-1,3-benzothiazol-7-yl)ethyl]amino}ethyl)-β-alaninamide bis-trifluoroacetic acid salt] | 0.37
3 | O=C(CCNCCc1ccc(O)c(Cl)c1)N(CCNCCc1ccc(O)c2[nH]c(=O)sc12)C1CCCCC1 [Example 89, N^3-[2-(3-chloro-4-hydroxyphenyl)ethyl]-N^1-cyclohexyl-N^1-(2-{[2-(4-hydroxy-2-oxo-2,3-dihydro-1,3-benzothiazol-7-yl)ethyl]amino}ethyl)-β-alaninamide bis-trifluoroacetic acid salt] | 0.9
4 | O=C(CCNCCc1cccc(O)c1)N(CCNCCc1ccc(O)c2[nH]c(=O)sc12)C1CCCCCCC1 [Example 90, N^1-Cyclooctyl-N^1-(2-{[2-(4-hydroxy-2-oxo-2,3-dihydro-1,3-benzothiazol-7-yl)ethyl]amino}ethyl)-N^3-[2-(3-hydroxyphenyl)ethyl]-β-alaninamide bis-trifluoroacetic acid salt] | 0.71
5 | CC1(C)CCC(N(CCNCCc2ccc(O)c3[nH]c(=O)sc23)C(=O)CCNCCc2cccc(O)c2)CC1 [Example 91, N^1-(4,4-Dimethylcyclohexyl)-N^1-(2-{[2-(4-hydroxy-2-oxo-2,3-dihydro-1,3-benzothiazol-7-yl)ethyl]amino}ethyl)-N^3-[2-(3-hydroxyphenyl)ethyl]-β-alaninamide bis-trifluoroacetic acid salt] | 0.75
6 | O=C(CCNCCc1cccc(F)c1)N(CCNCCc1ccc(O)c2[nH]c(=O)sc12)C1CCCCC1 [Example 96, N-Cyclohexyl-N^3-[2-(3-fluorophenyl)ethyl]-N-(2-{[2-(4-hydroxy-2-oxo-2,3-dihydro-1,3-benzothiazol-7-yl)ethyl]amino}ethyl)-β-alaninamide dihydrobromide salt] | 0.85
7 | O=C(NCc1ccccc1)c1ccc(CCNCCC(=O)N(CCNCCc2ccc(O)c3[nH]c(=O)sc23)C2CCCCCC2)cc1 [Example 100, N-Benzyl-4-[2-({3-[cycloheptyl(2-{[2-(4-hydroxy-2-oxo-2,3-dihydro-1,3-benzothiazol-7-yl)ethyl]amino}ethyl)amino]-3-oxopropyl}amino)ethyl]benzamide bis-trifluoroacetic acid salt] | 0.81
8 | CCCC[C@@H](C)N(CCNCCc1ccc(O)c2[nH]c(=O)sc12)C(=O)CCNCCc1ccccc1 [Example 101, N-(2-{[2-(4-Hydroxy-2-oxo-2,3-dihydro-1,3-benzothiazol-7-yl)ethyl]amino}ethyl)-N-[(1R)-1-methylpentyl]-N^3-(2-phenylethyl)-β-alaninamide bis-trifluoroacetic acid salt] | 0.98
9 | CCCC[C@H](C)N(CCNCCc1ccc(O)c2[nH]c(=O)sc12)C(=O)CCNCCc1ccccc1 [Example 102, N-(2-{[2-(4-Hydroxy-2-oxo-2,3-dihydro-1,3-benzothiazol-7-yl)ethyl]amino}ethyl)-N-[(1S)-1-methylpentyl]-N^3-(2-phenylethyl)-β-alaninamide bis-trifluoroacetic acid salt] | 0.23
10 | CC(CN(C(=O)CCNCCc1cccc(F)c1)C1CCCCCC1)NCCc1ccc(O)c2[nH]c(=O)sc12 (stereo not drawn) [Example 104, N-Cycloheptyl-N^3-[2-(3-fluorophenyl)ethyl]-N-(2-{[2-(4-hydroxy-2-oxo-2,3-dihydro-1,3-benzothiazol-7-yl)ethyl]amino}propyl)-β-alaninamide bis-trifluoroacetic acid salt] | 0.81
11 | CC(CN(C(=O)CCNCCc1ccccc1)C1CCCCC1)NCCc1ccc(O)c2[nH]c(=O)sc12 (stereo not drawn) [Example 105, N-Cyclohexyl-N-(2-{[2-(4-hydroxy-2-oxo-2,3-dihydro-1,3-benzothiazol-7-yl)ethyl]amino}propyl)-N^3-(2-phenylethyl)-β-alaninamide bis-trifluoroacetic acid salt] | 0.86

Same assay, conditions: Intrinsic Activity, fraction relative to the maximum activity determined for formoterol, dihydrobromide salt

Row | Compound | β2 Int Act
12 | O=C(CCNCCc1ccccc1)N(CCNCCc1ccc(O)c2[nH]c(=O)sc12)C1CCCCCC1 [Example 98, N-Cycloheptyl-N-(2-{[2-(4-hydroxy-2-oxo-2,3-dihydro-1,3-benzothiazol-7-yl)ethyl]amino}ethyl)-N^3-(2-phenylethyl)-β-alaninamide dihydrobromide salt] | 0.8
